Positions of bridges follow the written chain, without caps; N, C: chain ends. Non-standard residues stand in square brackets, D forms with d. Residues, ends and D or L forms follow the SMILES beside them. ξ: configuration not given here. *: point of attachment. Tyr(3,5-Br2) = N[C@@H](Cc1cc(Br)c(O)c(Br)c1)C(=O)O; Phe(4-COOH) = N[C@@H](Cc1ccc(C(=O)O)cc1)C(=O)O; Bip = N[C@@H](Cc1ccc(-c2ccccc2)cc1)C(=O)O; Phe(3-OMe) = COc1cccc(C[C@H](N)C(=O)O)c1; Phe(3-Me) = Cc1cccc(C[C@H](N)C(=O)O)c1; 1Nal = N[C@@H](Cc1cccc2ccccc12)C(=O)O; NMeY = CN[C@@H](Cc1ccc(O)cc1)C(=O)O; NMeF = CN[C@@H](Cc1ccccc1)C(=O)O; ξW = NC(Cc1c[nH]c2ccccc12)C(=O)O; 3Pal = N[C@@H](Cc1cccnc1)C(=O)O; 4Pal = N[C@@H](Cc1ccncc1)C(=O)O; Cha = N[C@@H](CC1CCCCC1)C(=O)O; Cit = NC(=O)NCCC[C@H](N)C(=O)O; Carboxymethyl = O=C(O)C*; NMeA = CN[C@@H](C)C(=O)O; Orn = NCCC[C@H](N)C(=O)O; Dab = NCC[C@H](N)C(=O)O; ξE = NC(CCC(=O)O)C(=O)O; ξV = CC(C)C(N)C(=O)O; Sar = CNCC(=O)O
Each compound was assayed against T1, human PD-1 (Jurkat-PD-1 cells) / PE-labeled human PD-L1-Ig (Homo sapiens, UniProt Q15116) (assay: Jurkat-PD-1 Cell Binding High-Content Screening Assay (CBA); Jurkat hPD1-PDL1 assay). Details: Jurkat cell line over-expressing human PD-1; PE-labeled PD-L1-Ig 20 nM final; compound incubated 2 hours at 37° C.; read-out: Jurkat HPD1-PDL1 IC50.
T1 construct: expressed in transfected cells; host or cells: Jurkat cell line over-expressing human PD-1
T1 sequence (Q15116 25-288): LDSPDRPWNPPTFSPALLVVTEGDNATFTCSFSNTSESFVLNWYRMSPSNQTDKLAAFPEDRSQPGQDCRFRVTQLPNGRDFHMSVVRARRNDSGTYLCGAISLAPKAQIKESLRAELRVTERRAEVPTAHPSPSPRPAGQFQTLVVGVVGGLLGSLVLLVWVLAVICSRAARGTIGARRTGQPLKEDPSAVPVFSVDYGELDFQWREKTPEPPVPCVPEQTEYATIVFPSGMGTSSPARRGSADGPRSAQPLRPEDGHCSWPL
Outline: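 Jurkat cells overexpressing human PD-1 (8×10^3 per well, DMEM with 10% FCS) were preincubated with compound for 2 hours at 37° C. PE-labeled human PD-L1-Ig was then added at 20 nM final. Binding was quantified by high-content imaging.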

| Compound | IC50 |
| --- | --- |
| CC(C)C[C@@H]1NC(=O)[C@H](Cc2c[nH]c3ccccc23)NC(=O)[C@H](CC(=O)O)NC(=O)[C@H](Cc2cc(Br)c(O)c(Br)c2)NC(=O)[C@H](Cc2ccccc2)NC(=O)CSC[C@@H](C(=O)N[C@@H](C)C(N)=O)NC(=O)[C@H](CO)NC(=O)[C@H](C(C)C)NC(=O)[C@H](CC(C)C)NC(=O)[C@H](CC(N)=O)NC(=O)CN(C)C(=O)[C@H](C)N(C)C(=O)[C@H](C(C)C)NC(=O)[C@H](Cc2ccc(-c3ccccc3)cc2)NC1=O [Example 1113] ({CH2CO}-F[Tyr(3,5-Br2)]DWL[Bip]V[NMeA][Sar]NLVSCA-NH2; thioether N-14) | 370 nM |
| Cc1cccc(C[C@@H]2NC(=O)[C@H](CC(=O)O)NC(=O)[C@H](Cc3ccc(C(=O)O)cc3)NC(=O)[C@H](Cc3ccc(OCC(=O)O)cc3)NC(=O)CSC[C@@H](C(=O)N[C@@H](C)C(N)=O)NC(=O)[C@H]([C@@H](C)O)NC(=O)[C@H](C(C)C)NC(=O)[C@H](CC3CCCCC3)NC(=O)[C@H](CCN)NC(=O)[C@H](Cc3ccccc3)N(C)C(=O)[C@H](CCCN)NC(=O)[C@H](CCC(=O)O)NC(=O)[C@H](Cc3ccc(-c4ccccc4)cc3)NC(=O)C(C(C)C)NC2=O)c1 (stereo partly drawn) [Example 1449] ({CH2CO}-Y(Carboxymethyl)[Phe(4-COOH)]D[Phe(3-Me)][ξV][Bip]E[Orn][NMeF][Dab][Cha]VTCA-NH2; thioether N-14) | 30 nM |
| CC(C)C[C@@H]1NC(=O)[C@H](Cc2cccc3ccccc23)NC(=O)[C@H](CC(=O)O)NC(=O)[C@H](Cc2ccc(O)cc2)NC(=O)[C@H](Cc2ccccc2)NC(=O)CSC[C@@H](C(=O)N[C@@H](C)C(N)=O)NC(=O)[C@H](CO)NC(=O)[C@H](C(C)C)NC(=O)[C@H](CC(C)C)NC(=O)[C@H](CC(N)=O)NC(=O)CN(C)C(=O)[C@H](C)N(C)C(=O)[C@H](C(C)C)NC(=O)[C@H](Cc2ccc(-c3ccccc3)cc2)NC1=O [Example 1116] ({CH2CO}-FYD[1Nal]L[Bip]V[NMeA][Sar]NLVSCA-NH2; thioether N-14) | 400 nM |
| CC(C)C[C@@H]1NC(=O)[C@H](Cc2c[nH]c3ccccc23)NC(=O)[C@H](CC(=O)O)NC(=O)[C@H](Cc2ccc(O)cc2)NC(=O)[C@H](Cc2ccccc2)NC(=O)CSC[C@@H](C(=O)N[C@@H](C)C(N)=O)NC(=O)[C@H]([C@@H](C)O)NC(=O)[C@H](C(C)C)NC(=O)[C@H](CC(C)C)NC(=O)[C@H](CCN)NC(=O)[C@H]2CCCN2C(=O)[C@H](CCCN)NC(=O)[C@H](C(C)C)NC(=O)[C@H](Cc2ccc(-c3ccccc3)cc2)NC1=O [Example 1422] ({CH2CO}-FYDWL[Bip]V[Orn][dP][Dab]LVTCA-NH2; thioether N-14) | 140 nM |
| Cc1cccc(C[C@@H]2NC(=O)[C@H](CC(=O)O)NC(=O)[C@H](Cc3ccc(O)cc3)NC(=O)[C@H](CC(N)=O)NC(=O)CSC[C@@H](C(=O)N[C@@H](C)C(N)=O)NC(=O)[C@H]([C@@H](C)O)NC(=O)[C@H](C(C)C)NC(=O)[C@H](CC(C)C)NC(=O)[C@H](CCN)NC(=O)[C@H](Cc3ccccc3)N(C)C(=O)[C@H](C)N(C)C(=O)[C@H](CCCNC(N)=O)NC(=O)[C@H](Cc3ccc(-c4ccccc4)cc3)NC(=O)[C@H](C(C)C)NC2=O)c1 [Example 1374] ({CH2CO}-NYD[Phe(3-Me)]V[Bip][Cit][NMeA][NMeF][Dab]LVTCA-NH2; thioether N-14) | 10 nM |
| CC(C)C[C@@H]1NC(=O)[C@H](Cc2c[nH]c3ccccc23)NC(=O)[C@H](CC(=O)O)NC(=O)[C@H](Cc2ccc(O)cc2)NC(=O)[C@H](Cc2ccccc2)NC(=O)CSC[C@@H](C(=O)N[C@@H](C)C(N)=O)NC(=O)[C@H](CO)NC(=O)[C@H](C(C)C)NC(=O)[C@H](CC(C)C)NC(=O)[C@H](CCCCN)NC(=O)[C@H]2CCCN2C(=O)[C@H](C)N(C)C(=O)[C@H](CCC(=O)O)NC(=O)[C@H](Cc2ccc(-c3ccccc3)cc2)NC1=O [Example 1036] ({CH2CO}-FYDWL[Bip]E[NMeA][dP]KLVSCA-NH2; thioether N-14) | 60 nM |
| CC(C)C[C@@H]1NC(=O)C(CCC(=O)O)NC(=O)[C@H](Cc2ccccc2)N(C)C(=O)[C@H](C)N(C)C(=O)[C@H](CCCNC(=N)N)NC(=O)[C@H](Cc2ccc(-c3ccccc3)cc2)NC(=O)[C@H](C(C)C)NC(=O)[C@H](Cc2c[nH]c3ccccc23)NC(=O)[C@H](CC(=O)O)NC(=O)[C@H](Cc2ccc(O)cc2)NC(=O)[C@H](Cc2ccccc2)NC(=O)CSC[C@@H](C(=O)NCC(N)=O)NC(=O)[C@H](CO)NC(=O)[C@H](C(C)C)NC1=O (stereo partly drawn) [Example 1221] ({CH2CO}-FYDWV[Bip]R[NMeA][NMeF][ξE]LVSCG-NH2; thioether N-14) | 500 nM |
| CC(C)C[C@@H]1NC(=O)[C@H](CCCNC(=N)N)NC(=O)[C@H](Cc2ccccc2)N(C)C(=O)[C@H](C)N(C)C(=O)[C@H](CCC(=O)O)NC(=O)[C@H](Cc2ccc(-c3ccccc3)cc2)NC(=O)[C@H](C(C)C)NC(=O)[C@H](Cc2c[nH]c3ccccc23)NC(=O)[C@H](CC(=O)O)NC(=O)[C@H](Cc2ccc(O)cc2)NC(=O)[C@H](Cc2ccccc2)NC(=O)CSC[C@@H](C(=O)NCC(N)=O)NC(=O)[C@H](CO)NC(=O)[C@H](C(C)C)NC1=O [Example 1214] ({CH2CO}-FYDWV[Bip]E[NMeA][NMeF]RLVSCG-NH2; thioether N-14) | 60 nM |
| COc1cccc(C[C@@H]2NC(=O)[C@H](CC(=O)O)NC(=O)[C@H](Cc3ccc(C(=O)O)cc3)NC(=O)[C@H](Cc3ccncc3)NC(=O)CSC[C@@H](C(=O)N[C@@H](C)C(N)=O)NC(=O)[C@H](CO)NC(=O)[C@H](C(C)C)NC(=O)[C@H](CC(C)C)NC(=O)[C@H](CC(N)=O)NC(=O)[C@H]3CCCN3C(=O)[C@H](C)N(C)C(=O)[C@H](C(C)C)NC(=O)[C@H](Cc3ccc(-c4ccccc4)cc3)NC(=O)[C@H](CC(C)C)NC2=O)c1 [Example 1387] ({CH2CO}-[4Pal][Phe(4-COOH)]D[Phe(3-OMe)]L[Bip]V[NMeA][dP]NLVSCA-NH2; thioether N-14) | 10 nM |
| COC[C@@H]1NC(=O)[C@H](C(C)C)NC(=O)[C@H](CC(C)C)NC(=O)[C@H](CC(N)=O)NC(=O)CN(C)C(=O)[C@H](C)N(C)C(=O)[C@H](C(C)C)NC(=O)[C@H](Cc2ccc(-c3ccccc3)cc2)NC(=O)[C@H](CC(C)C)NC(=O)[C@H](Cc2c[nH]c3ccccc23)NC(=O)[C@H](CC(=O)O)NC(=O)[C@H](Cc2ccc(O)cc2)NC(=O)[C@H](Cc2ccccc2)NC(=O)CSC[C@@H](C(=O)N[C@@H](C)C(N)=O)NC1=O [Example 1123] ({CH2CO}-FYDWL[Bip]V[NMeA][Sar]NLVS(Me)CA-NH2; thioether N-14) | 440 nM |
| CC(C)C[C@@H]1NC(=O)[C@H](Cc2c[nH]c3ccccc23)NC(=O)[C@H](CC(=O)O)NC(=O)[C@H](Cc2ccc(C(=O)O)cc2)NC(=O)[C@H](Cc2cccnc2)NC(=O)CSC[C@@H](C(=O)N[C@@H](C)C(N)=O)NC(=O)[C@H](CO)NC(=O)[C@H](C(C)C)NC(=O)[C@H](CC(C)C)NC(=O)[C@H](CC(N)=O)NC(=O)[C@H]2CCCN2C(=O)[C@H](C)N(C)C(=O)[C@H](C(C)C)NC(=O)[C@H](Cc2ccc(-c3ccccc3)cc2)NC1=O [Example 1025] ({CH2CO}-[3Pal][Phe(4-COOH)]DWL[Bip]V[NMeA][dP]NLVSCA-NH2; thioether N-14) | 40 nM |
| CC(C)C1NC(=O)[C@H](Cc2c[nH]c3ccccc23)NC(=O)[C@H](CC(=O)O)NC(=O)[C@H](Cc2ccncc2)NC(=O)[C@H](Cc2ccc(OCC(=O)O)cc2)NC(=O)CSC[C@@H](C(=O)N[C@@H](C)C(N)=O)NC(=O)[C@H]([C@@H](C)O)NC(=O)[C@H](C(C)C)NC(=O)[C@H](CC2CCCCC2)NC(=O)[C@H](CCN)NC(=O)[C@H](Cc2ccc(O)cc2)N(C)C(=O)[C@H](CCCN)NC(=O)[C@H](CCC(=O)O)NC(=O)[C@H](Cc2ccc(-c3ccccc3)cc2)NC1=O (stereo partly drawn) [Example 1452] ({CH2CO}-Y(Carboxymethyl)[4Pal]DW[ξV][Bip]E[Orn][NMeY][Dab][Cha]VTCA-NH2; thioether N-14) | 140 nM |
| CC(C)C[C@@H]1NC(=O)[C@H](CCCNC(=N)N)NC(=O)CN(C)C(=O)[C@H](C)N(C)C(=O)[C@H](C(C)C)NC(=O)[C@H](Cc2ccc(-c3ccccc3)cc2)NC(=O)[C@H](Cc2ccc(O)cc2)NC(=O)[C@H](Cc2c[nH]c3ccccc23)NC(=O)[C@H](CC(=O)O)NC(=O)[C@H](Cc2ccc(O)cc2)NC(=O)[C@H](Cc2ccccc2)NC(=O)CSC[C@@H](C(=O)NCC(N)=O)NC(=O)[C@H](CO)NC(=O)[C@H](C(C)C)NC1=O [Example 1236] ({CH2CO}-FYDWY[Bip]V[NMeA][Sar]RLVSCG-NH2; thioether N-14) | 440 nM |
| CC(C)C[C@@H]1NC(=O)[C@H](Cc2c[nH]c3ccccc23)NC(=O)[C@H](CC(=O)O)NC(=O)[C@H](Cc2ccc(O)cc2)NC(=O)[C@H](Cc2ccccc2)NC(=O)CSC[C@@H](C(=O)N[C@@H](C)C(N)=O)NC(=O)[C@H](CO)NC(=O)[C@H](C(C)C)NC(=O)[C@H](CC2CCCCC2)NC(=O)[C@H](CC(N)=O)NC(=O)CN(C)C(=O)[C@H](C)N(C)C(=O)[C@H](C(C)C)NC(=O)[C@H](Cc2ccc(-c3ccccc3)cc2)NC1=O [Example 1093] ({CH2CO}-FYDWL[Bip]V[NMeA][Sar]N[Cha]VSCA-NH2; thioether N-14) | 270 nM |
| CC(C)C[C@@H]1NC(=O)C(Cc2c[nH]c3ccccc23)NC(=O)[C@H](CC(=O)O)NC(=O)[C@H](Cc2ccc(O)cc2)NC(=O)[C@H](Cc2ccccc2)NC(=O)CSC[C@@H](C(=O)NCC(N)=O)NC(=O)[C@H](CO)NC(=O)[C@H](C(C)C)NC(=O)[C@H](CC(C)C)NC(=O)[C@H](CCCNC(=N)N)NC(=O)CN(C)C(=O)[C@H](C)N(C)C(=O)[C@H](CCCNC(=N)N)NC(=O)[C@H](Cc2ccc(-c3ccccc3)cc2)NC1=O (stereo partly drawn) [Example 1231] ({CH2CO}-FYD[ξW]L[Bip]R[NMeA][Sar]RLVSCG-NH2; thioether N-14) | 900 nM |

Source: patent US20240360178A1, “MACROCYCLIC IMMUNOMODULATORS” (Bristol-Myers Squibb Company, priority 2021, published 2024)
